This passage reports Activity, inhibition and IC50 results from ChEMBL document CHEMBL5154706, “Synthesis of lathyrane diterpenoid nitrogen-containing heterocyclic derivatives and evaluation of their anti-inflammatory activities” (Bioorg Med Chem, 2022).

Activity calls are given as the source filed them. The rule behind the calls is not given here.

In assay [1] the test system is RAW264.7. As to the kind of experiment: Antiinflammatory activity against LPS-induced mouse RAW264.7 cells assessed as increase in HO-1 expression preincubated for 3 hrs followed by LPS stimulation and measured after 24 hrs by Western blot analysis. Conditions: dose 0.25-2 µM, time 27.0 hrs, DDE = dose-dependent effect. It counts as functional, cell-based. (In western blotting, separated proteins are transferred to a membrane and probed.)

Assay [2] concerns the target T1, Nuclear factor erythroid 2-related factor 2 (Mus musculus) (UniProt Q60795).
T1 sequence (whole entry): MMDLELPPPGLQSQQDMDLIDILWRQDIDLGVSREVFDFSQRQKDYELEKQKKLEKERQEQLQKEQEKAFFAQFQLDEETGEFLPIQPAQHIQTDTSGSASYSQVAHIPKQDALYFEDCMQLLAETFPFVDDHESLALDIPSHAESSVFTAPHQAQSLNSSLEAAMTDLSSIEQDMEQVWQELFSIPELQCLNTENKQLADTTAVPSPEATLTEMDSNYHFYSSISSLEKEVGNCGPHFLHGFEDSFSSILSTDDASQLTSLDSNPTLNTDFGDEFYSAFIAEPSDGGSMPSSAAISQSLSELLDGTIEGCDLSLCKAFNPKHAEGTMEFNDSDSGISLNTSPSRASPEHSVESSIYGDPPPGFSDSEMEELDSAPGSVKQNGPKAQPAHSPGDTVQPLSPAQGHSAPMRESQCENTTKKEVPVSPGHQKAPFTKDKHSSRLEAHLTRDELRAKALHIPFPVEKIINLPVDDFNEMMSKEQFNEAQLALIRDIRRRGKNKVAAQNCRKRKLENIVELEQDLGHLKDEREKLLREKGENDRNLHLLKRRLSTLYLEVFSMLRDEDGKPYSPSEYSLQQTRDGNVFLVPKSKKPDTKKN
As to the kind of experiment: Induction of LPS-induced Nrf2 nuclear translocation in mouse RAW264.7 cells at 2 uM preincubated for 3 hrs followed by LPS stimulation and measured after 12 hrs by immunofluorescence staining based confocal laser scanning microscopy. It counts as cell-based. The settings on record: time 15.0 hrs.

For assay [3], the system named is RAW264.7. As to the kind of experiment: Antiinflammatory activity against mouse RAW264.7 cells assessed as inhibition of LPS-induced ROS generation at 0.25 to 2 uM preincubated for 3 hrs followed by LPS stimulation and measured after 12 hrs by DCFH-DA probe based flow cytometry. It counts as functional, cell-based. Conditions: dose 0.25-2 µM, time 15.0 hrs. In general terms: Flow cytometry measures light scatter and fluorescence of single cells or particles in a stream.

Assay [4] has as its system RAW264.7. In words: Antiinflammatory activity against LPS-induced mouse RAW264.7 cells assessed as increase in intrinsic nitric oxide level at 0.5 ug/ml measured after 3 hrs by Griess reagent based assay. The settings on record: dose 0.5 µg/ml. It counts as functional, cell-based. (Griess reagent forms a coloured azo dye with nitrite.)
Assay [5] deals with RAW264.7. In words: Antiinflammatory activity against LPS-induced mouse RAW264.7 cells assessed as decrease in Keap1 expression preincubated for 3 hrs followed by LPS stimulation and measured after 24 hrs by Western blot analysis. It counts as functional, cell-based. The settings on record: dose 0.25-2 µM, time 27.0 hrs, DDE = dose-dependent effect.
The subject of assay [6] is RAW264.7. In words: Antiinflammatory activity against mouse RAW264.7 cells assessed as inhibition of LPS-induced NO production preincubated for 3 hrs followed by LPS stimulation and measured after 24 hrs by Griess reagent based assay. It counts as functional, cell-based.
Assay [7] has as its system RAW264.7. In words: Antiinflammatory activity against LPS-induced mouse RAW264.7 cells assessed as increase in Nrf2 expression preincubated for 3 hrs followed by LPS stimulation and measured after 24 hrs by Western blot analysis. It counts as functional, cell-based. The settings on record: dose 0.25-2 µM, time 27.0 hrs, DDE = dose-dependent effect.

Broadly, the IC50 is the concentration at which inhibition is half-maximal. For `C=C1CC[C@H]2[C@@H](/C=C(\C)C(=O)[C@@]3(O)C[C@H](C)[C@H](O)[C@@H]3[C@H]1OC(=O)CCC(=O)OCCOCCOc1no[n+]([O-])c1S(=O)(=O)c1ccccc1)C2(C)C`, the Activity result in assay [1], in assay [5] and in assay [7] was “Dde” in each case. The result in assay [2] and in assay [4] was Active. For the same compound, the inhibition result in assay [3] is “Active”. In assay [6], the IC50 is 380 nM.
